# In patent US20250144067A1, “PERSONALIZED STARVATION THERAPY FOR CANCER” (Faeth Therapeutics, Inc., priority 2021, published 2025):
# Counter-ions that a name gives are not always drawn.
# Columns and labels:
# [1] = system: NCI-H292 lung cancer cells; assay: FDA drug screening, complete media vs cholesterol-free media without statin (TABLE 1); assay type: cell-based, human
# [2] = system: NCI-H292 lung cancer cells; assay: FDA drug screening, complete media vs cholesterol-free media with simvastatin (TABLE 2); assay type: cell-based, human; details: for Cholesterol-free media + simvastatin (0.04 μM) / Complete Media: NCI-H292 cells
# [3] = NCI-H292 cells, cholesterol-free media without statin, FDA drug library screen
# [4] = NCI-H292 cells, complete media, FDA drug library screen
# [5] = complete vs cholesterol-free media, >0 enhanced anti-cancer activity, about 0 neutral, <0 antagonist
# [6] = cholesterol-free media with simvastatin 0.04 μM, FDA drug library screen (TABLE 2)
# [7] = complete media, FDA drug library screen (TABLE 2)
# [8] = complete media minus cholesterol-free media + simvastatin (0.04 μM), >0 enhanced anti-cancer activity, about 0 neutral, <0 antagonist
# [9] = Complete minus Cholesterol-free, […]
# [10] = NCI-H292 cells, cholesterol-free media without statin
# [11] = Complete minus Cholesterol-free, greater than 0 enhanced anti-cancer activity, about 0 neutral, below 0 antagonist
# [12] = NCI-H292 cells, FDA drug library screen, cholesterol-free media without statin
# [13] = NCI-H292 cells, FDA drug library screen, complete media
# [14] = cholesterol-free media with simvastatin 0.04 μM, cell growth value in FDA drug screen
# [15] = complete media, cell growth value in FDA drug screen
# [16] = complete media minus cholesterol-free media + simvastatin, >0 enhanced anti-cancer activity, about 0 neutral, <0 antagonist
# [17] = Complete minus Cholesterol-free, >0 enhanced anti-cancer activity, about 0 neutral, <0 antagonist
# [18] = drug in cholesterol-free media with simvastatin 0.04 μM
# [19] = complete media vs cholesterol-free media + simvastatin (0.04 μM), >0 enhanced anti-cancer activity, about 0 neutral, <0 antagonist
# [20] = FDA drug library screen, cholesterol-free media with simvastatin 0.04 μM
# [21] = FDA drug library screen, complete media
# [22] = Complete minus Cholesterol-free, greater than 0 enhanced anti-cancer activity, about 0 neutral, below 0 antagonists
# [23] = NCI-H292 cells in cholesterol-free media without statin
# [24] = NCI-H292 cells in complete media
# [25] = complete media vs cholesterol-free media + simvastatin (0.04 μM), […]
# [26] = FDA library drug in cholesterol-free media with simvastatin 0.04 μM
# [27] = FDA library drug in complete media
molecule,measurement,setting,value
O=c1ccc2ccccc2o1 [Coumarin],Cholesterol-free,[1]; [3],0.9742
same,Complete,[1]; [4],1.716
same,Difference,[1]; [5],0.74
same,Cholesterol-free media + simvastatin (0.04 μM),[2]; [6],0.8441
same,Complete Media,[2]; [7],0.7948
same,Difference,[2]; [8],−0.05
CC(=O)Oc1cc(C)c(OC(C)=O)c2ccccc12 [Vitamin K4],Difference,[1]; [9],−0.21
same,Cholesterol-free,[1]; [10],0.9817
same,Complete,"[1]; NCI-H292 cells, complete media",0.7726
same,Cholesterol-free media + simvastatin (0.04 μM),"[2]; cholesterol-free media with simvastatin 0.04 μM, […]",0.7559
same,Complete Media,"[2]; complete media, […]",0.8779
same,Difference,"[2]; complete media minus cholesterol-free media + simvastatin, […]",0.12
Cc1cc(C2CCCCC2)n(O)c(=O)c1 [Ciclopirox (olamine)],Difference,[1]; [11],−0.13
same,Cholesterol-free,[1]; [12],0.3971
same,Complete,[1]; [13],0.2691
same,Cholesterol-free media + simvastatin (0.04 μM),[2]; [14],0.5971
same,Complete Media,[2]; [15],0.715
same,Difference,[2]; [16],0.12
Oc1c(Cl)cc(Cl)c2cccnc12 [Chloroxine],Cholesterol-free,[1]; [3],1.086
same,Complete,[1]; [4],1.288
same,Difference,[1]; [5],0.20
same,Cholesterol-free media + simvastatin (0.04 μM),[2]; [14],0.8888
same,Complete Media,[2]; [15],1.011
same,Difference,[2]; [16],0.12
c1ccc(CC2=NCCN2)cc1 [Tolazoline (hydrochloride)],Difference,[1]; [17],−0.25
same,Cholesterol-free,[1]; [10],1.249
same,Complete,"[1]; NCI-H292 cells, complete media",0.9982
same,Cholesterol-free media + simvastatin (0.04 μM),[2]; [18],1.363
same,Complete Media,[2]; drug in complete media,1.126
same,Difference,[2]; [19],−0.24
CCc1cc2c(cc1CC)CC(NC[C@H](O)c1ccc(O)c3[nH]c(=O)ccc13)C2 [Indacaterol],Cholesterol-free,[1]; [3],0.6776
same,Complete,[1]; [4],1.376
same,Difference,[1]; [5],0.70
same,Cholesterol-free media + simvastatin (0.04 μM),[2]; [20],0.7696
same,Complete Media,[2]; [21],1.1
same,Difference,[2]; [16],0.33
c1cnc2cc3c(cc2n1)[C@@H]1CNC[C@H]3C1 [Varenicline (Hydrochloride)],Difference,[1]; [17],−0.20
same,Cholesterol-free,[1]; [10],1.095
same,Complete,"[1]; NCI-H292 cells, complete media",0.8911
same,Cholesterol-free media + simvastatin (0.04 μM),[2]; [18],1.193
same,Complete Media,[2]; drug in complete media,0.9876
same,Difference,[2]; [19],−0.21
C/C(=C\c1csc(C)n1)[C@@H]1C[C@@H]2O[C@]2(C)CCC[C@H](C)[C@H](O)[C@@H](C)C(=O)C(C)(C)[C@@H](O)CC(=O)N1 [Ixabepilone],Difference,[1]; [17],−0.01
same,Cholesterol-free,[1]; [3],0.1019
same,Complete,[1]; [4],0.09155
same,Cholesterol-free media + simvastatin (0.04 μM),[2]; [6],0.1261
same,Complete Media,[2]; [7],0.1336
same,Difference,[2]; [8],0.01
C1N2CN3CN1CN(C2)C3.O=C(O)CNC(=O)c1ccccc1 [Methenamine (hippurate)],Difference,[1]; [17],0.05
same,Cholesterol-free,[1]; [3],0.09528
same,Complete,[1]; [4],0.1431
same,Cholesterol-free media + simvastatin (0.04 μM),[2]; [6],0.3855
same,Complete Media,[2]; [7],0.3286
same,Difference,[2]; [8],−0.06
CO/N=C1\C[C@]2(C[C@@H]3C[C@@H](C/C=C(\C)C[C@@H](C)/C=C/C=C4\CO[C@@H]5[C@H](O)C(C)=C[C@@H](C(=O)O3)[C@]45O)O2)O[C@H](/C(C)=C/C(C)C)[C@H]1C [Moxidectin],Difference,[1]; [17],−0.21
same,Cholesterol-free,[1]; [10],0.4893
same,Complete,"[1]; NCI-H292 cells, complete media",0.2816
same,Cholesterol-free media + simvastatin (0.04 μM),[2]; [18],0.8625
same,Complete Media,[2]; drug in complete media,0.6882
same,Difference,[2]; [19],−0.17
NC(=O)c1ccccc1O [Salicylamide],Difference,[1]; [22],−0.58
same,Cholesterol-free,[1]; [23],1.486
same,Complete,[1]; [24],0.907
same,Cholesterol-free media + simvastatin (0.04 μM),[2]; [6],1.206
same,Complete Media,[2]; [7],1.141
same,Difference,[2]; [8],−0.07
CCOc1ccc(Cc2cc([C@]34OC[C@](CO)(O3)[C@@H](O)[C@H](O)[C@H]4O)ccc2Cl)cc1.O=C1CC[C@@H](C(=O)O)N1 [Ertugliflozin L-pyroglutamic acid],Cholesterol-free,[1]; [3],1.319
same,Complete,[1]; [4],1.576
same,Difference,"[1]; complete vs cholesterol-free media, […]",0.26
same,Cholesterol-free media + simvastatin (0.04 μM),[2]; [18],1.012
same,Complete Media,[2]; drug in complete media,0.8266
same,Difference,[2]; [25],−0.19
C[C@@H]1C[C@H]2[C@@H]3CCC4=CC(=O)C=C[C@]4(C)[C@@]3(F)[C@@H](O)C[C@]2(C)[C@H]1C(=O)CO [Desoximetasone],Difference,[1]; [17],−0.06
same,Cholesterol-free,[1]; [3],0.8359
same,Complete,[1]; [4],0.7716
same,Cholesterol-free media + simvastatin (0.04 μM),[2]; [6],0.8194
same,Complete Media,[2]; [7],0.8184
same,Difference,[2]; [8],0.00
CS(=O)(=O)OCCCCOS(C)(=O)=O [Busulfan],Difference,[1]; [17],0.07
same,Cholesterol-free,[1]; [3],1.648
same,Complete,[1]; [4],1.719
same,Cholesterol-free media + simvastatin (0.04 μM),[2]; [26],1.936
same,Complete Media,[2]; [27],1.265
same,Difference,[2]; [19],−0.67
Cn1c(CCCC(=O)O)nc2cc(N(CCCl)CCCl)ccc21 [Bendamustine (hydrochloride)],Difference,[1]; [9],−0.21
same,Cholesterol-free,[1]; [10],1.195
same,Complete,"[1]; NCI-H292 cells, complete media",0.9866
same,Cholesterol-free media + simvastatin (0.04 μM),[2]; [18],1.142
same,Complete Media,[2]; drug in complete media,0.9554
same,Difference,[2]; [25],−0.19
Cc1ccc(/C(=C\CN2CCCC2)c2ccccn2)cc1 [Triprolidine (hydrochloride monohydrate)],Difference,[1]; [11],−0.13
same,Cholesterol-free,[1]; [12],1.24
same,Complete,[1]; [13],1.107
same,Cholesterol-free media + simvastatin (0.04 μM),[2]; [26],1.806
same,Complete Media,[2]; [27],1.191
same,Difference,[2]; [19],−0.61
C[C@H](Cn1cnc2c(N)ncnc21)OCP(=O)(O)O [Tenofovir],Difference,[1]; [22],−0.62
same,Cholesterol-free,[1]; [23],1.637
same,Complete,[1]; [24],1.013
same,Cholesterol-free media + simvastatin (0.04 μM),[2]; [20],0.8374
same,Complete Media,[2]; [21],1.066
same,Difference,[2]; [16],0.23
O=C1Nc2ccc(Cl)cc2[C@@](C#CC2CC2)(C(F)(F)F)O1 [Efavirenz],Cholesterol-free,[1]; [10],1.108
same,Complete,"[1]; NCI-H292 cells, complete media",0.7866
same,Difference,"[1]; complete vs cholesterol-free media, greater than 0 enhanced anti-cancer activity, about 0 neutral, below 0 antagonists",−0.32
same,Cholesterol-free media + simvastatin (0.04 μM),[2]; [14],1.215
same,Complete Media,[2]; [15],1.301
same,Difference,[2]; [16],0.09
(−)-Limonene,Cholesterol-free,[1]; [3],1.299
same,Complete,[1]; [4],1.515
same,Difference,[1]; [5],0.22
same,Complete Media,[2]; [21],1.422
same,Difference,[2]; [16],0.38
[H]/N=C(\N/C(=N/[H])NCCCCCCNC(=N)NC(=N)Nc1ccc(Cl)cc1)Nc1ccc(Cl)cc1 [Chlorhexidine],Difference,[1]; [17],0.04
same,Cholesterol-free,[1]; [3],0.0819
same,Complete,[1]; [4],0.1259
same,Cholesterol-free media + simvastatin (0.04 μM),[2]; [6],0.6176
same,Complete Media,[2]; [7],0.5919
same,Difference,[2]; [8],−0.03
O=P(O)(O)C(O)(Cc1cccnc1)P(=O)(O)O [Risedronate (sodium)],Difference,[1]; [17],−0.30
same,Cholesterol-free,[1]; [10],1.022
same,Complete,"[1]; NCI-H292 cells, complete media",0.7264
same,Cholesterol-free media + simvastatin (0.04 μM),[2]; [14],0.8847
same,Complete Media,[2]; [15],0.9961
same,Difference,[2]; [16],0.11
Saquinavir (Mesylate),Cholesterol-free,[1]; [3],0.7536
same,Complete,[1]; [4],1.206
same,Difference,[1]; [5],0.45
same,Cholesterol-free media + simvastatin (0.04 μM),[2]; [20],2.052
same,Complete Media,[2]; [21],1.925
same,Difference,[2]; [19],−0.13
NC(CO)C(=O)NNCc1ccc(O)c(O)c1O (centres unmarked) [Benserazide (hydrochloride)],Difference,[1]; [17],0.01
same,Cholesterol-free,[1]; [3],1.039
same,Complete,[1]; [4],1.047
same,Cholesterol-free media + simvastatin (0.04 μM),[2]; [20],1.132
same,Complete Media,[2]; [21],1.052
same,Difference,[2]; [19],−0.08
